Measurements from patent publication US20240279278A1, “NMU RECEPTOR 2 AGONISTS” (Boehringer Ingelheim International GmbH, priority 2023, published 2024).
Residues, ends and D or L forms follow the SMILES beside them.

Legend:
Format in all cases: cell-based
[1] = target: T1, human NMUR2 receptor (Homo sapiens, UniProt Q9GZQ4); assay: IP1 Gq HTRF assay, activation of human NMUR2 in human plasma; parameters: expressed in transfected cells; host or cells: CHO-K1; conditions: CHO-K1 cells expressing human NMUR2, 100% human plasma; read-out: EC50 (hNMUR2) human plasma
T1 sequence (Q9GZQ4 whole entry): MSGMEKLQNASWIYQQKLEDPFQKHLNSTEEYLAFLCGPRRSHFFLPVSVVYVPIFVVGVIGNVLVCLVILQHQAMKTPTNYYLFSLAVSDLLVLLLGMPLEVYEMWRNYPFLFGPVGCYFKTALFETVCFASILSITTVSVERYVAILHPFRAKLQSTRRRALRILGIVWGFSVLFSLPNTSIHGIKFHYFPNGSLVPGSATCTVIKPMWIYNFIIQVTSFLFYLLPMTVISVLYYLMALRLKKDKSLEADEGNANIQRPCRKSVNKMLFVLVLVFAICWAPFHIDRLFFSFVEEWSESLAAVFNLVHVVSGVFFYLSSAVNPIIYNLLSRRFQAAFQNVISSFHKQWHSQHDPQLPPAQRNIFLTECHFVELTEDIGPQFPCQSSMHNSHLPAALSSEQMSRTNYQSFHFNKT
Procedure, shortened: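 CHO-K1 cells stably expressing human NMUR2 exposed to peptide agonists (8-point dose-response) in 100% human plasma with 50 mM LiCl, 1% DMSO, for 1 h at 37° C. IP1 accumulation read by HTRF competition (665/620 nm ratio). EC50 from 4-parameter sigmoidal fit.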

[2] = target: T2, human NMUR1 receptor (Homo sapiens, UniProt Q9HB89); assay: IP1 Gq HTRF assay, activation of human NMUR1 in buffer; conditions: CHO-K1 cells expressing human NMUR1, stimulation buffer with 0.1% BSA; read-out: EC50 (hNMUR1) buffer
T2 construct: expressed in transfected cells; host or cells: CHO-K1
T2 sequence (Q9HB89 1-426): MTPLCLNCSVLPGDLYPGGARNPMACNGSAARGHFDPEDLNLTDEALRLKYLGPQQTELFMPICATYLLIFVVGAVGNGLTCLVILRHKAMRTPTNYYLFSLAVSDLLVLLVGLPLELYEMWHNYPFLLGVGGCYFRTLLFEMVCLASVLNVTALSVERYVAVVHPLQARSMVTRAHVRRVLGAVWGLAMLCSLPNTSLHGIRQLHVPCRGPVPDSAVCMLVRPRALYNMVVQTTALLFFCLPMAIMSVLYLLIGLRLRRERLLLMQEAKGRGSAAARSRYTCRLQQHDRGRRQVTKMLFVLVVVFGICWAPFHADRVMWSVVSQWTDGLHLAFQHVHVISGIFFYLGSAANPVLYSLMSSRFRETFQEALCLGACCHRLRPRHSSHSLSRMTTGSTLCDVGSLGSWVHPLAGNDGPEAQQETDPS
Text: Example 3: IP1 Gq HTRF Assay Activation of Human NMUR2 or Human NMUR1 in Buffer Application of the Homogenous Time Resolved Fluorescence (HTRF) technology optimized for Gq coupled receptors has been described in detail in the Cisbio IP-One Gq kit manual. In brief, a FRET signal (FRET: fluorescence resonance energy transfer) is generated between the donor label of an IP-One antibody (anti-IP1-Tb) and the acceptor label of a tagged IP-One (IP1-d2). Agonism of a Gq coupled receptor increases intracellular IP-One, which competes with labeled IP-One and leads to a reduction of the FRET signal. Frozen stocks of CHO-K1 cells stably expressing the human NMUR1 or NMUR2 receptor were thawed and 5000 cells were seeded in culture medium (HAM'S F12, 10% FCS) into each well of a 384-well assay plate. After seeding, cells were incubated for 24 h in a humidified incubator at 37° C. and 5% CO2. Next, cells were washed once with 50 μL of wash buffer (20 mM Hepes, 1×HBSS, pH 7.4), followed by addition of either 10 μL of stimulation buffer (20 mM Hepes, 1×HBSS, 50 mM LiCl, 0.1% BSA, pH 7.4). Peptide agonists to be tested were dissolved in 100% DMSO and pre-diluted in stimulation buffer at a suitable concentration range for an 8 pt dose-response curve. 5 μL of peptide pre-dilution were then added to each well, followed by another 5 μL of stimulation buffer to give a final concentration of 1% DMSO. Samples were subsequently incubated for 1 hour in a humidified incubator at 37° C. After addition of 5 μL each of IP1-d2 and anti-IP1-Tb, samples were incubated for another 1 hour at room temperature and FRET signals (ratio 665 nm/620 nm) were measured. EC50 values were calculated by nonlinear regression using a 4-parameter sigmoidal curve fit.

[3] = target: T1, human NMUR2 receptor; assay: IP1 Gq HTRF assay, activation of human NMUR2 in buffer; parameters: expressed in transfected cells; host or cells: CHO-K1; conditions: CHO-K1 cells expressing human NMUR2, stimulation buffer with 0.1% BSA; read-out: EC50 (hNMUR2) buffer
Procedure, shortened: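 CHO-K1 cells stably expressing human NMUR1 or NMUR2, seeded 24 h before assay, stimulated with peptide agonists (8-point dose-response, 1% DMSO final) in HEPES/HBSS buffer with 50 mM LiCl and 0.1% BSA, pH 7.4, 1 h at 37 °C. IP1 accumulation read by HTRF competition (665/620 nm); EC50 from 4-parameter sigmoidal fit.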

Row | Compound | EC50 [1] [nM] | EC50 [2] [nM] | EC50 [3] [nM]
1 | CCCC[C@H](NC(=O)[C@H](CC(C)C)N(C)C(=O)[C@H](Cc1ccccc1)NC(=O)[C@H](Cc1ccc(O)cc1)NC(=O)CN1CCN(CCNC(=O)CN(C)C(=O)CN(C)C(=O)CN(C)C(=O)CN(C)C(=O)CN(C)C(=O)CN(C)C(=O)CN(C)C(=O)CN(C)C(=O)CN(C)C(=O)CN(C)C(=O)CN(C)C(=O)CN(C)C(=O)CN(C)C(=O)CN(C)C(=O)CN(C)C(=O)CC[C@H](NC(=O)CC[C@H](NC(=O)CC[C@H](NC(=O)CCCCCCCCCCCCCCCCCCC(=O)O)C(=O)O)C(=O)O)C(=O)O)CC1)C(=O)N[C@@H](CCCN)C(=O)NCCC(=O)N[C@@H](CCCNC(=N)N)C(=O)NCC(N)=O [Compound 30, C20DA-gGlu3-Sar15-AEPipAc-Tyr-Phe-NMeLeu-Nle-Orn-bAla-Arg-Gly-NH2] (HELM PEPTIDE1{[O=C(O)CCCCCCCCCCCCCCCCCCC(=O)[*:2]].[gGlu].[gGlu].[gGlu].[Sar].[Sar].[Sar].[Sar].[Sar].[Sar].[Sar].[Sar].[Sar].[Sar].[Sar].[Sar].[Sar].[Sar].[Sar].[O=C(CN1CCN(CCN[*:1])CC1)[*:2]].Y.F.[meL].[Nle].[Orn].[bAla].R.G.[am]}$$$$V2.0) | 725 | > 1000 | 67
2 | CCCC[C@H](NC(=O)[C@H](CC(C)C)N(C)C(=O)[C@H](Cc1ccccc1)NC(=O)[C@H](Cc1ccc(O)cc1)NC(=O)CN1CCN(CCNC(=O)CN(C)C(=O)CN(C)C(=O)CN(C)C(=O)CN(C)C(=O)CN(C)C(=O)CN(C)C(=O)CN(C)C(=O)CN(C)C(=O)CN(C)C(=O)CN(C)C(=O)CN(C)C(=O)CN(C)C(=O)CC[C@H](NC(=O)CC[C@H](NC(=O)CC[C@H](NC(=O)CC[C@H](NC(=O)CCCCCCCCCCCCCCCCCCC(=O)O)C(=O)O)C(=O)O)C(=O)O)C(=O)O)CC1)C(=O)N[C@@H](CCN)C(=O)N(C)[C@@H](C)C(=O)N[C@@H](CCCNC(=N)N)C(=O)NCC(N)=O [Compound 31, C20DA-gGlu4-Sar12-AEPipAc-Tyr-Phe-NMeLeu-Nle-Dbu-NMeAla-Arg-Gly-NH2] | 14.6 | > 1000 | 3.7
3 | CCCC[C@H](NC(=O)[C@H](CC(C)C)N(C)C(=O)[C@H](Cc1ccccc1)NC(=O)[C@H](Cc1ccc(O)cc1)NC(=O)CN1CCN(CCNC(=O)CN(C)C(=O)CN(C)C(=O)CN(C)C(=O)CN(C)C(=O)CN(C)C(=O)CN(C)C(=O)CN(C)C(=O)CN(C)C(=O)CN(C)C(=O)CN(C)C(=O)CN(C)C(=O)CN(C)C(=O)CC[C@H](NC(=O)CC[C@H](NC(=O)CC[C@H](NC(=O)CC[C@H](NC(=O)CCCCCCCCCCCCCCCCCCC(=O)O)C(=O)O)C(=O)O)C(=O)O)C(=O)O)CC1)C(=O)N[C@@H](CCCCN)C(=O)N1CCC[C@H]1C(=O)N[C@@H](CCCNC(=N)N)C(=O)NCC(N)=O [Compound 32, C20DA-gGlu4-Sar12-AEPipAc-Tyr-Phe-NMeLeu-Nle-Lys-Pro-Arg-Gly-NH2] | 31.2 | 1200 | 6.5
4 | CCCC[C@H](NC(=O)[C@H](CC(C)C)N(C)C(=O)[C@H](Cc1ccccc1)NC(=O)[C@H](Cc1ccc(O)cc1)NC(=O)CN1CCN(CCNC(=O)CN(C)C(=O)CN(C)C(=O)CN(C)C(=O)CN(C)C(=O)CN(C)C(=O)CN(C)C(=O)CN(C)C(=O)CN(C)C(=O)CN(C)C(=O)CN(C)C(=O)CN(C)C(=O)CN(C)C(=O)CN(C)C(=O)CN(C)C(=O)CN(C)C(=O)CC[C@H](NC(=O)CC[C@H](NC(=O)CC[C@H](NC(=O)CCCCCCCCCCCCCCCCCCC(=O)O)C(=O)O)C(=O)O)C(=O)O)CC1)C(=O)N[C@@H](CCCN)C(=O)N(C)[C@@H](C)C(=O)N[C@@H](CCCNC(=N)N)C(=O)NCC(N)=O [Compound 34, C20DA-gGlu3-Sar15-AEPipAc-Tyr-Phe-NMeLeu-Nle-Orn-NMeAla-Arg-Gly-NH2] (HELM PEPTIDE1{[O=C(O)CCCCCCCCCCCCCCCCCCC(=O)[*:2]].[gGlu].[gGlu].[gGlu].[Sar].[Sar].[Sar].[Sar].[Sar].[Sar].[Sar].[Sar].[Sar].[Sar].[Sar].[Sar].[Sar].[Sar].[Sar].[O=C(CN1CCN(CCN[*:1])CC1)[*:2]].Y.F.[meL].[Nle].[Orn].[meA].R.G.[am]}$$$$V2.0) | 24.6 | > 1000 | 9
